Assay results taken from the NIST ThermoML archive (doi:10.1016/j.jct.2017.02.011).
± gives the expanded uncertainty stated by the source.

Columns and labels:
[1] = Crystal; DTA
[2] = Molar enthalpy of transition or fusion; settings: Crystal; DSC

With `Cc1cc(C)[nH]n1` [3,5-dimethylpyrazole] the Normal melting temperature [1] was 108.60 ± 0.5 °C and the “Molar enthalpy of transition or fusion” value [2] was 3.94 ± 0.21 kcal/mol.
